The target of one test is T1, CCR2 (Homo sapiens, UniProt P41597).
T1 construct: Membranes were prepared from THP-1 cells; endogenous in cells; host or cells: THP-1 cells (membrane preparation)
T1 sequence (P41597 1-360 isoform P41597-2): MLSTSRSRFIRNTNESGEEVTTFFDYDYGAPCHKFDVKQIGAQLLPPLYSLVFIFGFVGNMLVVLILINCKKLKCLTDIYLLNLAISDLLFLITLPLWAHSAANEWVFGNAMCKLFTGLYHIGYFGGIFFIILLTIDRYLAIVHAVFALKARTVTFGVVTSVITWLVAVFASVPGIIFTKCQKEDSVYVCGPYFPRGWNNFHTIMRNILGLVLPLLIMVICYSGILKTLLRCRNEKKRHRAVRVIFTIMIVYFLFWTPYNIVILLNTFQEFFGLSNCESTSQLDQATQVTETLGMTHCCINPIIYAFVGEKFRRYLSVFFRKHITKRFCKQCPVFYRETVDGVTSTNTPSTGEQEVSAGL
The test can be described thus: CCR2 receptor membrane binding assay ([125I]MCP-1, THP-1 cell membranes, SPA beads). Particulars: @ 10 μM test compound; THP-1 membranes; 10 µM. The protocol:
The above exemplary substances have been tested for binding to CCR2 using a binding assay as outlined herein below:
THP-1 cells (human acute monocytic leukaemia cells) were cultured under standardized conditions at 37° C. and 5% CO2 in a humidified incubator. THP-1 cells were cultivated in RPMI 1640 medium (Gibco 21875) containing 1% MEM-NEAA (Gibso 11140) 2 mM L-glutamine, 1.5 g/L sodium bicarbonate, 4.5 g/L glucose, 10 mM HEPES and 1.0 mM sodium pyruvate, 90%; 10% fetal calf serum (FCS Gibco 10500-064).
Membranes were prepared from THP-1 cells. THP-1 cells were centrifuged at 300×g at 4° C. for 10 min. The cell pellet was resuspendet in Phosphate Buffer Saline (PBS, including 10 μM Pefabloc and a protease inhibitor mix ‘complete’, Boehringer Mannheim (1 tablet/50 ml)), to a concentration of […]. The membrane preparation was performed by disrupting the cells by nitrogen […] (at 50 bar, for 1 h) in a “Nitrogen Bombe” (Parr Instrument). Cell debris was removed by centrifugation (800×g at 4° C., 1 min). The supernatant was centrifuged at 80000×g, 4° C. for 30 min to sediment the cell membranes. Usually 50 mg of protein (Bradford assay) were yielded from 1×10E9 cells. The membranes were resuspendet in 25 mM HEPES, 25 mM MgCl2, 1 mM CaCl2, 10% Glycerine for storage in aliquots at −80° C. in 25 mM HEPES, 25 mM MgCl2, 1 mM CaCl2, 10% Glycerine and stored at −80° C.
Receptor Membrane Binding Assay:
Perkin Elmer NEX 332 Jod 125 MCP-1, Stock: 2200 Ci/mmol solved in 2000 μl assay buffer, stored at −20° C. THP-1 membrane were adjusted with 25 mM HEPES, pH 7.2; 5 mM MgCl2; 0.5 mM CaCl2; 0.2% BSA assay buffer to a concentration of […]. Amersham Biosciences PVT-WGA Beads (RPNQ0001) were adjusted with assay buffer to a concentration of 0.24 mg/30 μl. For preparation of the membrane-bead-suspension membranes and beads were incubated for 30 min at RT under rotation (60 rpm) with a ratio of 1:2. Test compounds dissolved in 100% DMSO to a concentration of 10 mM and are further diluted with 100% DMSO to 1 mM. All additional compound dilutions were obtained with assay buffer, final 1% DMSO. Compounds, membrane-bead-suspension and [125I]MCP-1 (ca. 25000 cpm/10 μl) were incubated. Bound radioactivity was determined by scintillation counter after 8 h. Determination of affinity of test compounds (dissociation constant hKi) is calculated by iterative fitting of experimental data using the “easy sys” program, which is based on law of mass action (Schittkowski K. (1994), Numerische Mathematik, Vol. 68, 129-142).
Turning to `Cc1ccc(CNc2ncnc(C(=O)N3CCC(N4CCCCC4)CC3)c2C)cc1F` [Example 104], the “CCR2 % ctrl @ 10 μM” value was 31 % ctrl.

Still in this test, the particulars now being: @ 10 μM test compound; THP-1 membranes; read-out: CCR2 % ctrl @ 10 μM.
As to `CNC(=O)[C@@H]1CCN(C2CCN(C(=O)c3ncnc(NCc4ccc(Cl)c(F)c4)c3C)CC2)C1` [Example 78], the remaining activity at 10 µM came out at 28%.

In the case of `Cc1nc(NCC2COc3ccccc3C2)c(C)c(C(=O)N2CCC(N3CCC(N(C)S(C)(=O)=O)CC3)CC2)n1` (centres unmarked) [Example 79], the remaining activity at 10 µM came out at 10%.

Turning to `Cc1nc(NCc2ccc(Cl)c(F)c2)c(C)c(C(=O)N2CCC(N3CCC(N(C)S(C)(=O)=O)CC3)CC2)n1` [Example 80], the remaining activity at 10 µM was determined as 7%.

For `Cc1nc(NCc2ccc(C(F)(F)F)c(Cl)c2)c(C)c(C(=O)N2CCC(N3CCC(N(C)S(C)(=O)=O)CC3)CC2)n1` [Example 81], the remaining activity at 10 µM was 8%.

Consider `Cc1nc(NCc2ccc(Cl)c(Cl)c2)c(C)c(C(=O)N2CCC(N3CCC(N(C)S(C)(=O)=O)CC3)CC2)n1` [Example 82], for which the remaining activity at 10 µM amounted to 4%.

Regarding `Cc1nc(NCc2ccc(C(C)(C)C)cc2)c(C)c(C(=O)N2CCC(N3CCC(N(C)S(C)(=O)=O)CC3)CC2)n1` [Example 83], the remaining activity at 10 µM stood at 3%.

Consider `Cc1nc(NCC2CCN(c3ccccc3)C2)c(C)c(C(=O)N2CCC(N3CCC(N(C)S(C)(=O)=O)CC3)CC2)n1` (centres unmarked) [Example 84], for which the remaining activity at 10 µM was 4%.

On to `Cc1nc(NC[C@@H]2CCN(c3ccccc3)C2)c(C)c(C(=O)N2CCC(N3CCC(N(C)S(C)(=O)=O)CC3)CC2)n1` [Example 85], for which the remaining activity at 10 µM was found to be 13%.

Consider `Cc1nc(NCC2Cc3ccccc3C2)c(C)c(C(=O)N2CCC(N3CCC(N(C)S(C)(=O)=O)CC3)CC2)n1` [Example 86], for which the remaining activity at 10 µM was 3%.

In the case of `Cc1nc(NCC2CCCN(c3ccccc3)C2)c(C)c(C(=O)N2CCC(N3CCC(N(C)S(C)(=O)=O)CC3)CC2)n1` (centres unmarked) [Example 87], the remaining activity at 10 µM came to 9%.

Turning to `Cc1nc(NCc2ccc(Cl)c(Cl)c2)c(C)c(C(=O)N2CCC(N3CCC(NS(C)(=O)=O)CC3)CC2)n1` [Example 88], the remaining activity at 10 µM came to 6%.

On to `Cc1nc(NC2CCCC(c3ccccc3)C2)c(C)c(C(=O)N2CCC(N3CCC(NS(C)(=O)=O)CC3)CC2)n1` (centres unmarked) [Example 89], for which the remaining activity at 10 µM worked out at 29%.

For the molecule `Cc1nc(NCC2COc3ccccc3C2)c(C)c(C(=O)N2CCC(N3CCC(NS(C)(=O)=O)CC3)CC2)n1` (centres unmarked) [Example 90], the remaining activity at 10 µM was found to be 10%.

For the molecule `Cc1nc(NCCc2ccc(Cl)c(Cl)c2)c(C)c(C(=O)N2CCC(N3CCC(O)CC3)CC2)n1` [Example 91], the remaining activity at 10 µM turned out to be 23%.

Take `Cc1nc(NCc2ccc(Cl)c(Cl)c2)c(C)c(C(=O)N2CCC(N3CCC(O)CC3)CC2)n1` [Example 92]: the remaining activity at 10 µM came to 14%.

For `CNC(=O)C1CCN(C2CCN(C(=O)c3ncnc(NCC4CCN(c5ccccc5)C4)c3C)CC2)CC1` (centres unmarked) [Example 93], the remaining activity at 10 µM stood at 6%.

For `COC1CCN(C2CCN(C(=O)c3ncnc(NCc4ccc(C(C)C)cc4)c3C)CC2)CC1` [Example 94], the remaining activity at 10 µM worked out at 8%.

As to `COC1CCN(C2CCN(C(=O)c3ncnc(NCc4ccc(Cl)c(F)c4)c3C)CC2)CC1` [Example 95], the remaining activity at 10 µM was found to be 2%.

Staying with this test, now noted: dissociation constant hKi; [125I]MCP-1 binding to THP-1 membranes.
Molecule `CNC(=O)[C@@H]1CCN(C2CCN(C(=O)c3ncnc(NCc4ccc(Cl)c(F)c4)c3C)CC2)C1` [Example 78] showed a Ki of 740 nM.

Take `Cc1nc(NCC2COc3ccccc3C2)c(C)c(C(=O)N2CCC(N3CCC(N(C)S(C)(=O)=O)CC3)CC2)n1` (centres unmarked) [Example 79]: the Ki came to 89 nM.

`Cc1nc(NCc2ccc(Cl)c(F)c2)c(C)c(C(=O)N2CCC(N3CCC(N(C)S(C)(=O)=O)CC3)CC2)n1` [Example 80] returned a Ki of 53 nM.

The molecule `Cc1nc(NCc2ccc(C(F)(F)F)c(Cl)c2)c(C)c(C(=O)N2CCC(N3CCC(N(C)S(C)(=O)=O)CC3)CC2)n1` [Example 81] gave a Ki of 52 nM.

`Cc1nc(NCc2ccc(Cl)c(Cl)c2)c(C)c(C(=O)N2CCC(N3CCC(N(C)S(C)(=O)=O)CC3)CC2)n1` [Example 82] gave a Ki of 43 nM.

Regarding `Cc1nc(NCc2ccc(C(C)(C)C)cc2)c(C)c(C(=O)N2CCC(N3CCC(N(C)S(C)(=O)=O)CC3)CC2)n1` [Example 83], the affinity, expressed as Ki, was 43 nM.

As to `Cc1nc(NCC2CCN(c3ccccc3)C2)c(C)c(C(=O)N2CCC(N3CCC(N(C)S(C)(=O)=O)CC3)CC2)n1` (centres unmarked) [Example 84], the Ki came out at 69 nM.

With `Cc1nc(NC[C@@H]2CCN(c3ccccc3)C2)c(C)c(C(=O)N2CCC(N3CCC(N(C)S(C)(=O)=O)CC3)CC2)n1` [Example 85], the inhibitory constant (Ki) amounted to 55 nM.

Consider `Cc1nc(NCC2Cc3ccccc3C2)c(C)c(C(=O)N2CCC(N3CCC(N(C)S(C)(=O)=O)CC3)CC2)n1` [Example 86], for which the affinity corresponds to a Ki of 39 nM. The Ki values of the last two molecules are within 1.5-fold of each other.

`Cc1nc(NCC2CCCN(c3ccccc3)C2)c(C)c(C(=O)N2CCC(N3CCC(N(C)S(C)(=O)=O)CC3)CC2)n1` (centres unmarked) [Example 87] yielded a Ki of 78 nM.

The molecule `Cc1nc(NCc2ccc(Cl)c(Cl)c2)c(C)c(C(=O)N2CCC(N3CCC(NS(C)(=O)=O)CC3)CC2)n1` [Example 88] came in with a Ki of 58 nM.

In the case of `Cc1nc(NC2CCCC(c3ccccc3)C2)c(C)c(C(=O)N2CCC(N3CCC(NS(C)(=O)=O)CC3)CC2)n1` (centres unmarked) [Example 89], affinity was put at a Ki of 770 nM.

`Cc1nc(NCC2COc3ccccc3C2)c(C)c(C(=O)N2CCC(N3CCC(NS(C)(=O)=O)CC3)CC2)n1` (centres unmarked) [Example 90]: the affinity, expressed as Ki, was 127 nM.

In turn, `Cc1nc(NCCc2ccc(Cl)c(Cl)c2)c(C)c(C(=O)N2CCC(N3CCC(O)CC3)CC2)n1` [Example 91] came in with a Ki of 236 nM. This Ki is about 1.9-fold higher than that of the molecule before.

As for `Cc1nc(NCc2ccc(Cl)c(Cl)c2)c(C)c(C(=O)N2CCC(N3CCC(O)CC3)CC2)n1` [Example 92], the Ki was determined as 175 nM.

For the molecule `CNC(=O)C1CCN(C2CCN(C(=O)c3ncnc(NCC4CCN(c5ccccc5)C4)c3C)CC2)CC1` (centres unmarked) [Example 93], the Ki came out at 123 nM. The Ki values of the last two molecules are within 1.5-fold of each other.

`COC1CCN(C2CCN(C(=O)c3ncnc(NCc4ccc(C(C)C)cc4)c3C)CC2)CC1` [Example 94] returned a Ki of 211 nM.

Consider `COC1CCN(C2CCN(C(=O)c3ncnc(NCc4ccc(Cl)c(F)c4)c3C)CC2)CC1` [Example 95], for which the Ki was determined as 170 nM.

`Cc1ccc(CNc2ncnc(C(=O)N3CCC(N4CCCCC4)CC3)c2C)cc1F` [Example 104]: the Ki was 617 nM.

These data come from patent publication US8835440B2, “Cyclic pyrimidin-4-carboxamides as CCR2 receptor antagonists for treatment of inflammation, asthma and COPD” (Boehringer Ingelheim International GmbH, priority 2008, dated 2014).
